Data set [1] has as its system Phakopsora pachyrhizi. Put plainly: Phakopsora pachyrhizi / soybean / leaf disc preventative (Asian soybean rust). Format: in vivo. The settings on record: foliar, 200 ppm in the applied formulation, soybean leaf disks, inoculated one day after application, assessed 12 to 14 days after application, read-out: disease control compared to untreated control leaf disks. The protocol:
Leaf disks or leaf segments of various plant species are cut from plants grown in a greenhouse. The cut leaf disks or segments are placed in multiwell plates (24-well format) onto water agar. The leaf disks are sprayed with a test solution before (preventative) or after (curative) inoculation. Compounds to be tested are prepared as DMSO solutions (max. 10 mg/ml) which are diluted to the appropriate concentration with 0.025% Tween20 just before spraying. The inoculated leaf disks or segments are incubated under defined conditions (temperature, relative humidity, light, etc.) according to the respective test system. A single evaluation of disease level is carried out 3 to 14 days after inoculation, depending on the pathosystem. Percent disease control relative to the untreated check leaf disks or segments is then calculated.
Soybean leaf disks are placed on water agar in multiwell plates (24-well format) and sprayed with the formulated test compound diluted in water. One day after application leaf discs are inoculated by spraying a spore suspension on the lower leaf surface. After an incubation period in a climate cabinet of 24-36 hours in darkness at 20° C. and 75% rh leaf disc are kept at 20° C. with 12 h light/day and 75% rh. The activity of a compound is assessed as percent disease control compared to untreated when an appropriate level of disease damage appears in untreated check leaf disks (12 to 14 days after application).
The following compounds at 200 ppm in the applied formulation give at least 80% disease control in this test when compared to untreated control leaf disks under the same conditions, which show extensive disease development.

Data set [2] relates to Glomerella lagenarium (Colletotrichum lagenarium). Put plainly: Glomerella lagenarium (Colletotrichum lagenarium) liquid culture / cucumber / preventative (anthracnose). Format: cell-based. To be noted: Colletotrichum orbiculare; 20 ppm in the applied formulation; liquid culture in PDB, 24° C.; 3 to 4 days after application; read-out: disease control compared to untreated control (inhibition of growth measured photometrically). The protocol:
Mycelia fragments or conidia suspensions of a fungus prepared either freshly from liquid cultures of the fungus or from cryogenic storage, are directly mixed into nutrient broth. DMSO solutions of the test compound (max. 10 mg/ml) are diluted with 0.025% Tween20 by a factor of 50 and 10 μl of this solution is pipetted into a microtiter plate (96-well format). The nutrient broth containing the fungal spores/mycelia fragments is then added to give an end concentration of the tested compound. The test plates are incubated in the dark at 24° C. and 96% relative humidity. The inhibition of fungal growth is determined photometrically after 2 to 7 days, depending on the pathosystem, and percent antifungal activity relative to the untreated check is calculated.
Conidia of the fungus from cryogenic storage are directly mixed into nutrient broth (PDB—potato dextrose broth). After placing a (DMSO) solution of test compound into a microtiter plate (96-well format), the nutrient broth containing the fungal spores is added. The test plates are incubated at 24° C. and the inhibition of growth is measured photometrically 3 to 4 days after application.
The following compounds at 20 ppm in the applied formulation give at least 80% disease control in this test when compared to untreated control under the same conditions, which show extensive disease development.

In general, melting point refers to the temperature, or range, at which the solid turns liquid. As for `FC(F)(F)c1nc(-c2ccc(SCc3ccccc3)cc2)no1` [Compound 1.3, 3-(4-benzylsulfanylphenyl)-5-(trifluoromethyl)-1,2,4-oxadiazole], the melting point fell in the range of 83 to 87 °C.

As for `FC(F)(F)CSc1ccc(-c2noc(C(F)(F)F)n2)cc1` [Compound 1.4, 3-[4-(2,2,2-trifluoroethylsulfanyl)phenyl]-5-(trifluoromethyl)-1,2,4-oxadiazole], in data set [1], the pest or weed control at 200 ppm is at least 80%. As to `Fc1cccc(F)c1CSc1ccc(-c2noc(C(F)(F)F)n2)cc1` [Compound 1.6, 3-[4-[(2,6-difluorophenyl)methylsulfanyl]phenyl]-5-(trifluoromethyl)-1,2,4-oxadiazole], the pest or weed control at 200 ppm in data set [1] was at least 80%. Consider `Fc1ccc(Sc2ccc(-c3noc(C(F)(F)F)n3)cc2)cc1` [Compound 1.9, 3-[4-(4-fluorophenyl)sulfanylphenyl]-5-(trifluoromethyl)-1,2,4-oxadiazole], for which the melting point is 64 to 67 °C. The pest or weed control at 200 ppm in data set [1] is at least 80%. In the case of `COc1ccccc1Sc1ccc(-c2noc(C(F)(F)F)n2)cc1` [Compound 1.11, 3-[4-(2-methoxyphenyl)sulfanyl-phenyl]-5-(trifluoromethyl)-1,2,4-oxadiazole], in data set [1], the pest or weed control at 200 ppm was at least 80%. The compound `FC(F)(F)c1nc(-c2ccc(CSc3ccccc3)cc2)no1` [Compound 1.13, 3-[4-(phenylsulfanylmethyl)phenyl]-5-(trifluoromethyl)-1,2,4-oxadiazole] came in with a melting point of 86 to 91 °C. Moreover, the pest or weed control at 200 ppm in data set [1] is at least 80%. The term inhibition denotes the relative decrease from the control value, in per cent. Take `CC(C)(C)Sc1ccc(-c2noc(C(F)(F)F)n2)cc1` [Compound 1.16, 3-(4-tert-butylsulfanylphenyl)-5-(trifluoromethyl)-1,2,4-oxadiazole]: the inhibition at 20 ppm in data set [2] was at least 80%.

As for `Cc1ccccc1Sc1ccc(-c2noc(C(F)(F)F)n2)cc1` [Compound 1.17, 3-[4-(o-tolylsulfanyl)phenyl]-5-(trifluoromethyl)-1,2,4-oxadiazole], the pest or weed control at 200 ppm in data set [1] was at least 80%. As to `FC(F)(F)c1nc(-c2ccc(Sc3ccccc3Cl)cc2)no1` [Compound 1.18, 3-[4-(2-chlorophenyl)sulfanylphenyl]-5-(trifluoromethyl)-1,2,4-oxadiazole], in data set [1], the pest or weed control at 200 ppm is at least 80%. Regarding `Cc1ccccc1Sc1ccc(-c2noc(C(F)(F)F)n2)cn1` [Compound 1.19, 3-[6-(o-tolylsulfanyl)-3-pyridyl]-5-(trifluoromethyl)-1,2,4-oxadiazole], the inhibition at 20 ppm in data set [2] is at least 80%. In the case of `Fc1ccccc1Sc1ccc(-c2noc(C(F)(F)F)n2)cn1` [Compound 1.20, 3-[6-(2-fluorophenyl)sulfanyl-3-pyridyl]-5-(trifluoromethyl)-1,2,4-oxadiazole], the pest or weed control at 200 ppm in data set [1] is at least 80%. The inhibition at 20 ppm in data set [2] is at least 80%. As to `FC(F)(F)c1nc(-c2ccc(SCc3ccccc3)nc2)no1` [Compound 1.21, 3-(6-benzylsulfanyl-3-pyridyl)-5-(trifluoromethyl)-1,2,4-oxadiazole], the melting point lay within 66 to 68 °C. Moreover, the inhibition at 20 ppm in data set [2] was at least 80%. `Cc1cc(-c2noc(C(F)(F)F)n2)ccc1SCc1ccccc1` [Compound 1.22, 3-(4-benzylsulfanyl-3-methyl-phenyl)-5-(trifluoromethyl)-1,2,4-oxadiazole] gave a melting point of 66 to 72 °C. Turning to `Fc1cc(-c2noc(C(F)(F)F)n2)cc(F)c1CSc1ccccc1` [Compound 1.27, 3-[3,5-difluoro-4-(phenylsulfanylmethyl)phenyl]-5-(trifluoromethyl)-1,2,4-oxadiazole], the melting point lay in the range of 50 to 55 °C. For the same compound, the inhibition at 20 ppm in data set [2] is at least 80%. In the same order, the values of `[O-][S+](Cc1ccccc1)c1ccc(-c2noc(C(F)(F)F)n2)cc1` (stereo not shown) [Compound 2.4, 3-(4-benzylsulfinylphenyl)-5-(trifluoromethyl)-1,2,4-oxadiazole] are 178 to 181 °C and at least 80%. Compound `[O-][S+](c1ccc(-c2noc(C(F)(F)F)n2)cc1)c1ccccc1C(F)(F)F` (stereo not shown) [Compound 2.21, 5-(trifluoromethyl)-3-[4-[2-(trifluoromethyl)phenyl]sulfinylphenyl]-1,2,4-oxadiazole] registered a melting point of 80 to 86 °C. Moreover, the pest or weed control at 200 ppm in data set [1] was at least 80%.

Compound `[O-][S+](Cc1ccccc1)c1ccc(-c2noc(C(F)(F)F)n2)cn1` (stereo not shown) [Compound 2.27, 3-(6-benzylsulfinyl-3-pyridyl)-5-(trifluoromethyl)-1,2,4-oxadiazole] gave a melting point of 122 to 125 °C. The inhibition at 20 ppm in data set [2] is at least 80%.

`[O-][S+](Cc1ccc(-c2noc(C(F)(F)F)n2)c(F)c1)c1ccccc1` (stereo not shown) [Compound 2.30, 3-[4-(benzenesulfinylmethyl)-2-fluoro-phenyl]-5-(trifluoromethyl)-1,2,4-oxadiazole] registered a melting point of 149 to 156 °C. As for `O=S(=O)(c1ccc(-c2noc(C(F)(F)F)n2)cc1)c1ccc(F)cc1F` [Compound 3.4, 3-[4-(2,4-difluorophenyl)sulfonyl-phenyl]-5-(trifluoromethyl)-1,2,4-oxadiazole], the pest or weed control at 200 ppm in data set [1] was at least 80%. Also, the inhibition at 20 ppm in data set [2] was at least 80%. Turning to `O=S(=O)(CC(F)(F)F)c1ccc(-c2noc(C(F)(F)F)n2)cc1` [Compound 3.5, 3-[4-(2,2,2-trifluoroethylsulfonyl)phenyl]-5-(trifluoromethyl)-1,2,4-oxadiazole], the melting point fell in the range of 117 to 122 °C. Besides, in data set [2], the inhibition at 20 ppm was at least 80%.

For `Cc1ccc(C)c(S(=O)(=O)c2ccc(-c3noc(C(F)(F)F)n3)cc2)c1` [Compound 3.6, 3-[4-(2,5-dimethylphenyl)sulfonyl-phenyl]-5-(trifluoromethyl)-1,2,4-oxadiazole], the melting point fell in the range of 118 to 125 °C. The inhibition at 20 ppm in data set [2] is at least 80%. In the same order, the values of `Cc1cc(-c2noc(C(F)(F)F)n2)ccc1S(=O)(=O)c1ccccc1` [Compound 3.8, 3-[4-(benzenesulfonyl)-3-methyl-phenyl]-5-(trifluoromethyl)-1,2,4-oxadiazole] are 117 to 124 °C and at least 80%. As to `O=S(=O)(Cc1ccc(-c2noc(C(F)(F)F)n2)cc1)c1ccccc1F` [Compound 3.11, 3-[4-[(2-fluorophenyl)sulfonylmethyl]phenyl]-5-(trifluoromethyl)-1,2,4-oxadiazole], the melting point fell in the range of 150 to 154 °C. Moreover, the pest or weed control at 200 ppm in data set [1] is at least 80%.

As to `CC(C)(C)S(=O)(=O)c1ccc(-c2noc(C(F)(F)F)n2)cc1` [Compound 3.13, 3-(4-tert-butylsulfonylphenyl)-5-(trifluoromethyl)-1,2,4-oxadiazole], the melting point lay in the range of 133 to 136 °C. Besides, the inhibition at 20 ppm in data set [2] is at least 80%. The matching figures for `CCC(C)CS(=O)(=O)c1ccc(-c2noc(C(F)(F)F)n2)cc1` (stereo not shown) [Compound 3.15, 3-[4-(2-methylbutylsulfonyl)phenyl]-5-(trifluoromethyl)-1,2,4-oxadiazole]: 75 to 80 °C and at least 80%.

On to `O=S(=O)(Cc1ccc(-c2noc(C(F)(F)F)n2)c(F)c1)c1ccccc1` [Compound 3.22, 3-[4-(benzenesulfonylmethyl)-2-fluoro-phenyl]-5-(trifluoromethyl)-1,2,4-oxadiazole], for which the melting point lay in the range of 172 to 178 °C. Further, the pest or weed control at 200 ppm in data set [1] was at least 80%. The compound `O=S(=O)(Cc1ccc(-c2noc(C(F)(F)F)n2)c(F)c1F)c1ccccc1` [Compound 3.23, 3-[4-(benzenesulfonylmethyl)-2,3-difluoro-phenyl]-5-(trifluoromethyl)-1,2,4-oxadiazole] had a melting point of 187 to 191 °C. Moreover, the pest or weed control at 200 ppm in data set [1] is at least 80%. The matching figures for `O=S(=O)(Cc1c(F)cc(-c2noc(C(F)(F)F)n2)cc1F)c1ccccc1` [Compound 3.24, 3-[4-(benzenesulfonylmethyl)-3,5-difluoro-phenyl]-5-(trifluoromethyl)-1,2,4-oxadiazole]: 135 to 140 °C and at least 80%.

The values above are taken from patent US20180319753A1, “MICROBIOCIDAL OXADIAZOLE DERIVATIVES” (SYNGENTA PARTICIPATIONS AG, priority 2015, published 2018).
